Measurements from patent US12576093B2, “Pharmaceutical composition for subcutaneous administration” (MANNKIND CORPORATION, priority 2019, dated 2026).
Several values for one entry are separate records, joined by “and”; a condition that tells them apart may be missing. Equal values may be shown once.

What was measured:
[1] = Pharmacokinetics after 24-hour subcutaneous infusion via fluid delivery device in male Beagle dogs (plasma, LC-MS/MS); settings: for AUC(0-t): AUClast; for MRT last: MRTlast
[2] = oral; cited from earlier work
[3] = Group 1, SC infusion 40 mg/animal, individual animals
[4] = SC infusion 76 mg/animal, individual animals
[5] = dogs, 40 mg/24 h and 76 mg/24 h SC infusion, both dosages
[6] = male, Beagle, dog, in vivo, sc, 3.21 mg/kg, Group 1, SC infusion, dose 3.21 mg/kg, mean
[7] = male, Beagle, dog, in vivo, sc, 5.45 mg/kg, Group 2, SC infusion, dose 5.45 mg/kg, mean
[8] = male, Beagle, dog, in vivo, sc, 40 mg, Group 1, SC infusion 40 mg/animal, mean
[9] = male, Beagle, dog, in vivo, sc, 40 mg/animal, Plasma concentration of CBD, Group 1, SC infusion 40 mg/animal, individual animals, BLOQ = below 1 ng/mL
[10] = male, Beagle, dog, in vivo, sc, 40 mg/animal, Plasma concentration of CBD, Group 1, SC infusion 40 mg/animal, mean (BLOQ samples excluded)
[11] = male, Beagle, dog, in vivo, sc, 76 mg, SC infusion 76 mg/animal, mean
[12] = male, Beagle, dog, in vivo, sc, 76 mg/animal, Plasma concentration of CBD, SC infusion 76 mg/animal, individual animals, BLOQ = below 1 ng/mL
[13] = male, Beagle, dog, in vivo, sc, 76 mg/animal, Plasma concentration of CBD, SC infusion 76 mg/animal, mean (BLOQ samples excluded)

C=C(C)[C@@H]1CCC(C)=C[C@H]1c1c(O)cc(CCCCC)cc1O [CBD, Cannabidiol]
AUClast [1, 3]: 363 ng·h/mL and 19.9 ng·h/mL and 127 ng·h/mL and 371 ng·h/mL
Cmax [1, 3]: 14.2 ng/mL (2×) and 5.34 ng/mL and 5.83 ng/mL
MRTlast [1, 3]: 26.0 h and 3.61 h and 16.3 h
tmax [1, 3]: 30.0 hr (3×) and 3.00 hr
Cmax ([1]; Group 1, SC infusion, dose 3.21 mg/kg, mean): 9.92 ng(mL
Cmax ([1]; Group 2, SC infusion, dose 5.45 mg/kg, mean): 11.7 ng(mL
AUClast [1, 4]: 217 ng·h/mL and 493 ng·h/mL and 129 ng·h/mL and 372 ng·h/mL
Cmax [1, 4]: 10.3 ng/mL and 17.5 ng/mL and 5.24 ng/mL and 13.6 ng/mL
MRTlast [1, 4]: 30.4 h and 18.9 h and 21.5 h
tmax [1, 4]: 24.0 hr (2×) and 2.00 hr and 18.0 hr
Absorption: first detection of CBD levels in blood [1, 5]: detected within an hour of the beginning of infusion
Elimination: CBD detectability after end of infusion [1, 5]: still detectable 24 h after completion of fluid delivery device infusion
Constancy of CBD concentration in the blood ([1]; group 1 (40 mg CBD/animal) and group 2 (76 mg CBD/animal), FIGS. 24 and 25): constant concentration of CBD in the blood with a minimal variation is reached after few hours
AUC(0-t) [1, 6]: 221 ng·h/mL
MRT last [1, 6]: 17.6 h
tmax ([1]; male, Beagle, dog, in vivo, sc, 3.21 mg/kg, Tmax, Group 1, SC infusion, dose 3.21 mg/kg, mean): 23.3 h
AUC(0-t) [1, 7]: 303 ng·h/mL
MRT last [1, 7]: 24.3 h
tmax ([1]; male, Beagle, dog, in vivo, sc, 5.45 mg/kg, Tmax, Group 2, SC infusion, dose 5.45 mg/kg, mean): 17 h
AUC(0-t) [1, 8]: 221 ng·h/mL
Cmax ([1]; male, Beagle, dog, in vivo, sc, 40 mg, Cmax, Group 1, SC infusion 40 mg/animal, mean): 9.92 ng/mL
MRT last [1, 8]: 17.6 h
tmax ([1]; male, Beagle, dog, in vivo, sc, 40 mg, tmax, Group 1, SC infusion 40 mg/animal, mean): 23.3 h
concentration at 0.083 h ([1]; male, Beagle, dog, in vivo, sc, 40 mg/animal, Plasma concentration of CBD, Group 1, SC infusion 40 mg/animal, 0.083 hr, individual animals, BLOQ = below 1 ng/mL): 5.76 ng/mL
concentration at 0.5 h ([1]; male, Beagle, dog, in vivo, sc, 40 mg/animal, Plasma concentration of CBD, Group 1, SC infusion 40 mg/animal, 0.5 hr, mean (BLOQ samples excluded)): 3.28 ng/mL
concentration at 0.75 h [1, 9]: 2.83 ng/mL
concentration at 0.75 h [1, 10]: 2.45 ng/mL
concentration at 1 h [1, 10]: 2.63 ng/mL
concentration at 2 h [1, 10]: 3.72 ng/mL
concentration at 3 h [1, 10]: 7.36 ng/mL
concentration at 4 h [1, 10]: 4.1 ng/mL
concentration at 5 h [1, 10]: 5.11 ng/mL
concentration at 6 h [1, 10]: 6.12 ng/mL
concentration at 7 h [1, 10]: 5.53 ng/mL
concentration at 8 h [1, 9]: 5.06 ng/mL
concentration at 8 h [1, 10]: 6.03 ng/mL
concentration at 10 h [1, 10]: 5.92 ng/mL
concentration at 12 h [1, 9]: 4.47 ng/mL
concentration at 12 h [1, 10]: 5.12 ng/mL
concentration at 18 h [1, 9]: 3.31 ng/mL
concentration at 24 h [1, 9]: 9.48 ng/mL
concentration at 24 h [1, 10]: 8.82 ng/mL
concentration at 30 h [1, 10]: 11.4 ng/mL
concentration at 36 h ([1]; male, Beagle, dog, in vivo, sc, 40 mg/animal, Plasma concentration of CBD, Group 1, SC infusion 40 mg/animal, 36 hr, individual animals, BLOQ = below 1 ng/mL): 9.05 ng/mL
concentration at 36 h ([1]; male, Beagle, dog, in vivo, sc, 40 mg/animal, Plasma concentration of CBD, Group 1, SC infusion 40 mg/animal, 36 hr, mean (BLOQ samples excluded)): 7.59 ng/mL
concentration at 48 h ([1]; male, Beagle, dog, in vivo, sc, 40 mg/animal, Plasma concentration of CBD, Group 1, SC infusion 40 mg/animal, 48 hr, individual animals, BLOQ = below 1 ng/mL): 4.2 ng/mL
concentration at 48 h ([1]; male, Beagle, dog, in vivo, sc, 40 mg/animal, Plasma concentration of CBD, Group 1, SC infusion 40 mg/animal, 48 hr, mean (BLOQ samples excluded)): 5.15 ng/mL
AUC(0-t) [1, 11]: 303 ng·h/mL
Cmax ([1]; male, Beagle, dog, in vivo, sc, 76 mg, Cmax, SC infusion 76 mg/animal, mean): 11.7 ng/mL
MRT last ([1]; male, Beagle, dog, in vivo, sc, 76 mg, SC infusion 76 mg/animal, individual animals): 26.5 h
MRT last [1, 11]: 24.3 h
tmax ([1]; male, Beagle, dog, in vivo, sc, 76 mg, tmax, SC infusion 76 mg/animal, mean): 17 h
concentration at 1 h [1, 12]: 3.73 ng/mL
concentration at 1 h [1, 13]: 5.31 ng/mL
concentration at 2 h [1, 12]: 3.69 ng/mL
concentration at 2 h [1, 13]: 4.97 ng/mL
concentration at 3 h [1, 13]: 4.38 ng/mL
concentration at 4 h [1, 13]: 3.31 ng/mL
concentration at 5 h [1, 12]: 2.42 ng/mL
concentration at 5 h [1, 13]: 2.17 ng/mL
concentration at 6 h [1, 13]: 5.35 ng/mL
concentration at 7 h [1, 13]: 4.78 ng/mL
concentration at 8 h [1, 13]: 5.14 ng/mL
concentration at 10 h [1, 13]: 4.19 ng/mL
concentration at 12 h [1, 13]: 6.03 ng/mL
concentration at 18 h [1, 13]: 5.93 ng/mL
concentration at 24 h [1, 13]: 9.68 ng/mL
concentration at 30 h [1, 13]: 9.04 ng/mL
concentration at 36 hr ([1]; male, Beagle, dog, in vivo, sc, 76 mg/animal, Plasma concentration of CBD, SC infusion 76 mg/animal, 36 hr, mean (BLOQ samples excluded)): 6.04 ng/mL
concentration at 48 hr ([1]; male, Beagle, dog, in vivo, sc, 76 mg/animal, Plasma concentration of CBD, SC infusion 76 mg/animal, 48 hr, mean (BLOQ samples excluded)): 8.32 ng/mL
Fraction lost in the liver through the digestion [2]: approximately 94%
